{
  "source": "patent US10328093B2",
  "about": "“Anthracycline formulations” (CYTRX CORPORATION, priority 2012, dated 2019)",
  "test": "pH stability study of DOXO-EMCH in DI Water or pH 4.0 buffer (RP-HPLC)",
  "assay_type": "physicochemical",
  "conditions": "for DOXO-EMCH / Doxorubicin / pH: room temperature",
  "method": "To analyze DOXO-EMCH's behavior in solution, a reversed-phase (RP) HPLC method for quantitation of DOXO-EMCH and various impurities and degradation products was utilized. Samples (1.0 μL injection volume) were assayed on an HPLC system fitted with a Phenomenex Gemini C18 column 100×2.0 mm, 3 μm at a flow rate of 0.3 mL/min. The mobile phase used was an acetate/acetonitrile gradient. The degradation product EMCH could not be detected using the above HPLC method, and was therefore determined using a liquid chromatography-mass spectrometry (LC-MS) method.\nStudies were performed to examine the effects of pH on DOXO-EMCH stability. In these studies, a criterion of less than 3% doxorubicin over 3-5 hours was set as the goal for stability of DOXO-EMCH. Overall, studies were designed to measure the degradation of DOXO-EMCH at room temperature into doxorubicin and EMCH. Doxorubicin was measured as a percentage of the starting DOXO-EMCH material. Due to solubility issues, the buffer controlled pH portion of the study could not be completed at pH 5.0, 5.5, 6.0 and 7.0. The results below are for DOXO-EMCH dissolved in DI Water at low (2.0 mg/mL) and high (20.0 mg/mL) concentration, and DOXO-EMCH dissolved in pH 4.0 phosphate citrate buffer at low concentration. In summary, none of the conditions met the goal of less than 3% doxorubicin HCl over a 3-5 hour period. […] The DOXO-EMCH dissolved in pH 4.0 phosphate citrate buffer was very unstable, likely as a result of the breakdown of the molecule at pH values below ˜4.5 (Table 6).",
  "key": {"[1]": {"conditions": "~2.0 mg/mL in DI Water, no pH adjustment, 0 hr"}, "[2]": {"conditions": "~2.0 mg/mL in DI Water, no pH adjustment, 2 hr"}, "[3]": {"conditions": "~2.0 mg/mL in DI Water, no pH adjustment, 4 hr"}, "[4]": {"conditions": "~2.0 mg/mL in DI Water, no pH adjustment, 6 hr"}, "[5]": {"conditions": "~2.0 mg/mL in pH 4.0 phosphate citrate buffer, 0 hr"}, "[6]": {"conditions": "~2.0 mg/mL in pH 4.0 phosphate citrate buffer, 2 hr"}, "[7]": {"conditions": "~2.0 mg/mL in pH 4.0 phosphate citrate buffer, 4 hr"}, "[8]": {"conditions": "~20.0 mg/mL in DI Water, no pH adjustment, 0 hr"}, "[9]": {"conditions": "~20.0 mg/mL in DI Water, no pH adjustment, 2 hr"}, "[10]": {"conditions": "~20.0 mg/mL in DI Water, no pH adjustment, 4 hr"}, "[11]": {"conditions": "~20.0 mg/mL in DI Water, no pH adjustment, 6 hr"}},
  "data": [
    {"smiles": "COc1cccc2c1C(=O)c1c(O)c3c(c(O)c1C2=O)C[C@@](O)(/C(CO)=N/NC(=O)CCCCCN1C(=O)C=CC1=O)C[C@@H]3O[C@H]1C[C@H](N)[C@H](O)[C@H](C)O1.Cl", "note": "[DOXO-EMCH]", "values": [
      {"measurement": "stability", "setting": "dissolved in pH 4.0 phosphate citrate buffer", "value": "very unstable"},
      {"measurement": "DOXO-EMCH", "setting": "[1]", "value": 95.8, "unit": "wt %"},
      {"measurement": "Doxorubicin", "setting": "[1]", "value": 0.6, "unit": "wt %"},
      {"measurement": "pH", "setting": "[1]", "value": 6.0},
      {"measurement": "DOXO-EMCH", "setting": "[2]", "value": 82.8, "unit": "wt %"},
      {"measurement": "Doxorubicin", "setting": "[2]", "value": 3.7, "unit": "wt %"},
      {"measurement": "pH", "setting": "[2]", "value": 5.4},
      {"measurement": "DOXO-EMCH", "setting": "[3]", "value": 76.7, "unit": "wt %"},
      {"measurement": "Doxorubicin", "setting": "[3]", "value": 8.9, "unit": "wt %"},
      {"measurement": "pH", "setting": "[3]", "value": 5.1},
      {"measurement": "DOXO-EMCH", "setting": "[4]", "value": 68.6, "unit": "wt %"},
      {"measurement": "Doxorubicin", "setting": "[4]", "value": 14.3, "unit": "wt %"},
      {"measurement": "pH", "setting": "[4]", "value": 5.0},
      {"measurement": "DOXO-EMCH", "setting": "[5]", "value": 65.1, "unit": "wt %"},
      {"measurement": "Doxorubicin", "setting": "[5]", "value": 23.5, "unit": "wt %"},
      {"measurement": "pH", "setting": "[5]", "value": 4.0},
      {"measurement": "DOXO-EMCH", "setting": "[6]", "value": 7.3, "unit": "wt %"},
      {"measurement": "Doxorubicin", "setting": "[6]", "value": 66.1, "unit": "wt %"},
      {"measurement": "pH", "setting": "[6]", "value": 4.0},
      {"measurement": "DOXO-EMCH", "setting": "[7]", "value": 2.9, "unit": "wt %"},
      {"measurement": "Doxorubicin", "setting": "[7]", "value": 68.8, "unit": "wt %"},
      {"measurement": "pH", "setting": "[7]", "value": 4.0},
      {"measurement": "DOXO-EMCH", "setting": "[8]", "value": 86.0, "unit": "wt %"},
      {"measurement": "Doxorubicin", "setting": "[8]", "value": 7.8, "unit": "wt %"},
      {"measurement": "pH", "setting": "[8]", "value": 4.8},
      {"measurement": "DOXO-EMCH", "setting": "[9]", "value": 74.9, "unit": "wt %"},
      {"measurement": "Doxorubicin", "setting": "[9]", "value": 15.6, "unit": "wt %"},
      {"measurement": "pH", "setting": "[9]", "value": 4.6},
      {"measurement": "DOXO-EMCH", "setting": "[10]", "value": 56.7, "unit": "wt %"},
      {"measurement": "Doxorubicin", "setting": "[10]", "value": 24.8, "unit": "wt %"},
      {"measurement": "pH", "setting": "[10]", "value": 4.5},
      {"measurement": "DOXO-EMCH", "setting": "[11]", "value": 45.2, "unit": "wt %"},
      {"measurement": "Doxorubicin", "setting": "[11]", "value": 32.2, "unit": "wt %"},
      {"measurement": "pH", "setting": "[11]", "value": 4.6}
    ]}
  ]
}
